The OligoGym collection
HELM strings list units from the 5' end as sugar, base in round brackets, then linkage (d deoxyribose, r ribose, m 2'-O-methyl, p phosphodiester). Strings are as the collection lists them; they lack the last nucleoside at the 3' end of the tested compound. [moe] = 2'-O-(2-methoxyethyl) (MOE); [sp] = phosphorothioate linkage; [m5C] = 5-methylcytosine

Target: LRRK2
Test: mouse, dose not given
Details: ASO

Substance	3 h FOB score [score 0-7]
RNA1{[moe](T)[sp].[moe](T)p.[moe](A)[sp].[moe](A)[sp].[moe]([m5C])[sp].d(A)[sp].d(A)[sp].d(T)[sp].d(A)[sp].d(T)[sp].d([m5C])[sp].d(A)[sp].d(T)[sp].d(A)[sp].d(T)[sp].[moe](A)[sp].[moe](A)p.[moe](T)[sp].[moe]([m5C])}$$$$ (last 3' nucleoside missing)	0
RNA1{[moe](A)[sp].[moe](G)p.[moe](G)p.[moe]([m5C])p.[moe](A)[sp].d(T)[sp].d(T)[sp].d(T)[sp].d([m5C])[sp].d(A)[sp].d(T)[sp].d(A)[sp].d(T)[sp].d(A)[sp].d(G)[sp].[moe](T)p.[moe]([m5C])p.[moe](G)[sp].[moe](G)}$$$$ (last 3' nucleoside missing)	4
RNA1{[moe](T)[sp].[moe](G)p.[moe]([m5C])[sp].[moe](T)[sp].[moe](T)[sp].d(T)[sp].d([m5C])[sp].d(A)[sp].d(T)[sp].d(A)[sp].d(G)[sp].d([m5C])[sp].d(T)[sp].d(T)[sp].d([m5C])[sp].[moe]([m5C])[sp].[moe](A)p.[moe]([m5C])[sp].[moe]([m5C])}$$$$ (last 3' nucleoside missing)	4
RNA1{[moe](T)[sp].[moe](G)p.[moe](A)[sp].[moe](G)[sp].[moe](T)[sp].d(G)[sp].d([m5C])[sp].d(A)[sp].d(T)[sp].d(G)[sp].d(G)[sp].d([m5C])[sp].d(A)[sp].d(T)[sp].d([m5C])[sp].[moe](A)[sp].[moe](A)p.[moe](A)[sp].[moe](A)}$$$$ (last 3' nucleoside missing)	5
RNA1{[moe](A)[sp].[moe](G)p.[moe](T)p.[moe](G)p.[moe]([m5C])[sp].d(A)[sp].d(T)[sp].d(G)[sp].d(G)[sp].d([m5C])[sp].d(A)[sp].d(T)[sp].d([m5C])[sp].d(A)[sp].d(A)[sp].[moe](A)p.[moe](A)p.[moe](A)[sp].[moe](T)}$$$$ (last 3' nucleoside missing)	1
RNA1{[moe](G)[sp].[moe](A)p.[moe](A)[sp].[moe](A)[sp].[moe](T)[sp].d(G)[sp].d(A)[sp].d(G)[sp].d(T)[sp].d(G)[sp].d([m5C])[sp].d(A)[sp].d(T)[sp].d(G)[sp].d(G)[sp].[moe]([m5C])[sp].[moe](A)p.[moe](T)[sp].[moe]([m5C])}$$$$ (last 3' nucleoside missing)	7
RNA1{[moe](A)[sp].[moe](A)p.[moe](T)p.[moe](G)p.[moe]([m5C])[sp].d(T)[sp].d(T)[sp].d(T)[sp].d([m5C])[sp].d(A)[sp].d(T)[sp].d(A)[sp].d(G)[sp].d([m5C])[sp].d(T)[sp].[moe](T)p.[moe]([m5C])p.[moe]([m5C])[sp].[moe](A)}$$$$ (last 3' nucleoside missing)	1
RNA1{[moe](A)[sp].[moe](G)p.[moe](T)[sp].[moe](T)[sp].[moe]([m5C])[sp].d([m5C])[sp].d(T)[sp].d(T)[sp].d([m5C])[sp].d(A)[sp].d(G)[sp].d(T)[sp].d([m5C])[sp].d(T)[sp].d([m5C])[sp].[moe](A)p.[moe](A)p.[moe](G)[sp].[moe](G)}$$$$ (last 3' nucleoside missing)	7
RNA1{[moe](T)[sp].[moe]([m5C])p.[moe](A)p.[moe](G)p.[moe](T)[sp].d(T)[sp].d([m5C])[sp].d([m5C])[sp].d(T)[sp].d(T)[sp].d([m5C])[sp].d(A)[sp].d(G)[sp].d(T)[sp].d([m5C])[sp].[moe](T)p.[moe]([m5C])p.[moe](A)[sp].[moe](A)}$$$$ (last 3' nucleoside missing)	4
RNA1{[moe]([m5C])[sp].[moe](T)p.[moe](G)[sp].[moe](T)[sp].[moe](T)[sp].d(A)[sp].d(T)[sp].d(T)[sp].d([m5C])[sp].d(T)[sp].d(G)[sp].d(A)[sp].d(T)[sp].d([m5C])[sp].d(A)[sp].[moe]([m5C])[sp].[moe](A)p.[moe]([m5C])[sp].[moe](G)}$$$$ (last 3' nucleoside missing)	5
